According to PubChem BioAssay (NCI):
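Dose response: 5 concentrations. Exposure: 48 h. Format: 96-well plates. Endpoint: linear interpolation; highest concentration if not reached. GI50 marks 50% less growth. TGI marks complete inhibition of growth.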

Experiments:
Test in all cases: NCI-60 cell line screen, 48 h
BT-549 breast = tested on: BT-549 breast
K-562 leukemia = tested on: K-562 leukemia
786-0 renal = tested on: 786-0 renal
CCRF-CEM leukemia = tested on: CCRF-CEM leukemia
SK-MEL-5 melanoma = tested on: SK-MEL-5 melanoma
NCI-H226 lung = tested on: NCI-H226 lung
HS 578T breast = tested on: HS 578T breast
HL-60(TB) leukemia = tested on: HL-60(TB) leukemia
SF-539 CNS = tested on: SF-539 CNS
MDA-MB-231 breast = tested on: MDA-MB-231 breast
T-47D breast = tested on: T-47D breast
HCC-2998 colon = tested on: HCC-2998 colon
SW-620 colon = tested on: SW-620 colon
MCF7 breast = tested on: MCF7 breast
SNB-19 CNS = tested on: SNB-19 CNS
OVCAR-3 ovarian = tested on: OVCAR-3 ovarian
MOLT-4 leukemia = tested on: MOLT-4 leukemia
SK-OV-3 ovarian = tested on: SK-OV-3 ovarian
MALME-3M melanoma = tested on: MALME-3M melanoma
HT29 colon = tested on: HT29 colon
M14 melanoma = tested on: M14 melanoma
HOP-92 NSCLC = tested on: HOP-92 NSCLC
A549 NSCLC = tested on: A549 NSCLC
SF-268 CNS = tested on: SF-268 CNS
NCI-H522 lung = tested on: NCI-H522 lung
SK-MEL-2 melanoma = tested on: SK-MEL-2 melanoma
MDA-MB-435 = tested on: MDA-MB-435
IGROV1 ovarian = tested on: IGROV1 ovarian
RPMI-8226 leukemia = tested on: RPMI-8226 leukemia
COLO 205 colon = tested on: COLO 205 colon
EKVX NSCLC = tested on: EKVX NSCLC
NCI-H460 lung = tested on: NCI-H460 lung
A498 renal = tested on: A498 renal
NCI/ADR-RES ovarian = tested on: NCI/ADR-RES ovarian
UACC-257 melanoma = tested on: UACC-257 melanoma
DU-145 prostate = tested on: DU-145 prostate
HOP-62 NSCLC = tested on: HOP-62 NSCLC
RXF 393 renal = tested on: RXF 393 renal
HCT-15 colon = tested on: HCT-15 colon
SK-MEL-28 melanoma = tested on: SK-MEL-28 melanoma
SR leukemia = tested on: SR leukemia
SN12C renal = tested on: SN12C renal
HCT-116 colon = tested on: HCT-116 colon
LOX IMVI melanoma = tested on: LOX IMVI melanoma
SF-295 CNS = tested on: SF-295 CNS
TK-10 renal = tested on: TK-10 renal
OVCAR-8 ovarian = tested on: OVCAR-8 ovarian
NCI-H23 lung = tested on: NCI-H23 lung
U251 CNS = tested on: U251 CNS
SNB-75 CNS = tested on: SNB-75 CNS
UO-31 renal = tested on: UO-31 renal
UACC-62 melanoma = tested on: UACC-62 melanoma
KM12 colon = tested on: KM12 colon
CAKI-1 renal = tested on: CAKI-1 renal
OVCAR-4 ovarian = tested on: OVCAR-4 ovarian
ACHN renal = tested on: ACHN renal
PC-3 prostate = tested on: PC-3 prostate
OVCAR-5 ovarian = tested on: OVCAR-5 ovarian

CN(C)CCCn1c2c(c3cnccc3c1=O)C(=O)c1ccccc1-2
GI50 (BT-549 breast): 1200 nM
TGI (BT-549 breast): 8430 nM
GI50 (K-562 leukemia): 474 nM
TGI (K-562 leukemia): 12500 nM
GI50 (786-0 renal): 361 nM
TGI (786-0 renal): 13600 nM
GI50 (CCRF-CEM leukemia): 318 nM
TGI (CCRF-CEM leukemia): 2870 nM
GI50 (SK-MEL-5 melanoma): 363 nM
TGI (SK-MEL-5 melanoma): 1480 nM
GI50 (NCI-H226 lung): 388 nM
TGI (NCI-H226 lung): 2850 nM
GI50 (HS 578T breast): 1040 nM
TGI (HS 578T breast): 7530 nM
GI50 (HL-60(TB) leukemia): 514 nM
TGI (HL-60(TB) leukemia): 4650 nM
GI50 (SF-539 CNS): 377 nM
TGI (SF-539 CNS): 2900 nM
GI50 (MDA-MB-231 breast): 623 nM
TGI (MDA-MB-231 breast): 3100 nM
GI50 (T-47D breast): 509 nM
TGI (T-47D breast): 6990 nM
GI50 (HCC-2998 colon): 777 nM
TGI (HCC-2998 colon): 2600 nM
GI50 (SW-620 colon): 209 nM
TGI (SW-620 colon): 10900 nM
GI50 (MCF7 breast): 244 nM
TGI (MCF7 breast): 1760 nM
GI50 (SNB-19 CNS): 362 nM
TGI (SNB-19 CNS): 3960 nM
GI50 (OVCAR-3 ovarian): 1100 nM
TGI (OVCAR-3 ovarian): 5470 nM
GI50 (MOLT-4 leukemia): 232 nM
TGI (MOLT-4 leukemia): 2100 nM
GI50 (SK-OV-3 ovarian): 1960 nM
TGI (SK-OV-3 ovarian): 28700 nM
GI50 (MALME-3M melanoma): 287 nM
TGI (MALME-3M melanoma): 1050 nM
GI50 (HT29 colon): 242 nM
TGI (HT29 colon): 11300 nM
GI50 (M14 melanoma): 391 nM
TGI (M14 melanoma): 2410 nM
GI50 (HOP-92 NSCLC): 203 nM
TGI (HOP-92 NSCLC): 2680 nM
GI50 (A549 NSCLC): 676 nM
TGI (A549 NSCLC): 3860 nM
GI50 (SF-268 CNS): 620 nM
TGI (SF-268 CNS): 7240 nM
GI50 (NCI-H522 lung): 312 nM
TGI (NCI-H522 lung): 7240 nM
GI50 (SK-MEL-2 melanoma): 829 nM
TGI (SK-MEL-2 melanoma): 3600 nM
GI50 (MDA-MB-435): 490 nM
TGI (MDA-MB-435): 2480 nM
GI50 (IGROV1 ovarian): 411 nM
TGI (IGROV1 ovarian): 3750 nM
GI50 (RPMI-8226 leukemia): 337 nM
TGI (RPMI-8226 leukemia): 1650 nM
GI50 (COLO 205 colon): 269 nM
TGI (COLO 205 colon): 3660 nM
GI50 (EKVX NSCLC): 2330 nM
TGI (EKVX NSCLC): 16000 nM
GI50 (NCI-H460 lung): 390 nM
TGI (NCI-H460 lung): 1750 nM
GI50 (A498 renal): 1170 nM
TGI (A498 renal): 5950 nM
GI50 (NCI/ADR-RES ovarian): 483 nM
TGI (NCI/ADR-RES ovarian): 10800 nM
GI50 (UACC-257 melanoma): 486 nM
TGI (UACC-257 melanoma): 3210 nM
GI50 (DU-145 prostate): 490 nM
TGI (DU-145 prostate): 3430 nM
GI50 (HOP-62 NSCLC): 402 nM
TGI (HOP-62 NSCLC): 7750 nM
GI50 (RXF 393 renal): 396 nM
TGI (RXF 393 renal): 2050 nM
GI50 (HCT-15 colon): 318 nM
TGI (HCT-15 colon): 10200 nM
GI50 (SK-MEL-28 melanoma): 508 nM
TGI (SK-MEL-28 melanoma): 2590 nM
GI50 (SR leukemia): 95 nM
TGI (SR leukemia): 793 nM
GI50 (SN12C renal): 289 nM
TGI (SN12C renal): 4350 nM
GI50 (HCT-116 colon): 245 nM
TGI (HCT-116 colon): 11700 nM
GI50 (LOX IMVI melanoma): 303 nM
TGI (LOX IMVI melanoma): 4180 nM
GI50 (SF-295 CNS): 737 nM
TGI (SF-295 CNS): 5590 nM
GI50 (TK-10 renal): 721 nM
TGI (TK-10 renal): 27600 nM
GI50 (OVCAR-8 ovarian): 313 nM
TGI (OVCAR-8 ovarian): 44100 nM
GI50 (NCI-H23 lung): 550 nM
TGI (NCI-H23 lung): 3730 nM
GI50 (U251 CNS): 425 nM
TGI (U251 CNS): 11400 nM
GI50 (SNB-75 CNS): 820 nM
TGI (SNB-75 CNS): 4030 nM
GI50 (UO-31 renal): 183 nM
TGI (UO-31 renal): 2550 nM
GI50 (UACC-62 melanoma): 309 nM
TGI (UACC-62 melanoma): 1460 nM
GI50 (KM12 colon): 488 nM
TGI (KM12 colon): 9580 nM
GI50 (CAKI-1 renal): 376 nM
TGI (CAKI-1 renal): 7010 nM
GI50 (OVCAR-4 ovarian): 601 nM
TGI (OVCAR-4 ovarian): 8890 nM
GI50 (ACHN renal): 145 nM
TGI (ACHN renal): 3630 nM
GI50 (PC-3 prostate): 485 nM
TGI (PC-3 prostate): 3930 nM
GI50 (OVCAR-5 ovarian): 558 nM
TGI (OVCAR-5 ovarian): 9040 nM
